Key:
[1] = galantamine administered as the unmodified drug; cited from earlier work
[2] = logP (partition coefficient); assay type: physicochemical; settings: source of the values not stated
Description: "logP" is defined as the decadic logarithm of the partition coefficient P which is the ratio of […], as the neutral molecule.

[3] = target: T1, a4ß2 neuronal nicotinic acetylcholine receptor (Homo sapiens, UniProt P17787+P43681); assay: Allosteric potentiation of nAChR in HEK-293 cells, whole-cell patch clamp; assay type: cell-based; settings: increase in response to acetylcholine, Figure 3
T1 construct: expressed in transfected cells; host or cells: HEK-293
Protocol: (§1) 1983;91:49-60. […] Butyrylcholinesterase, 25 units/ml, was used. Reaction temperature was 37°C.
Investigation of the allosteric modulation effect of drug candidates on nicotinic acetylcholine receptors (nAChRs) expressed in HEK-293 cells by electrophysiology. Results shown as figure 3
Single HEK-293 cells expressing either human α4β2, human α3β4, or chimeric chicken α7 (with mouse 5HT3) nAChR were plated on fibronectin-coated cover slips for 3 days before measurement. The selected nAChR containing cells were placed in the recording bath, filled with extracellular buffer (145 mM NaCl, 5 mM KCl, 1 mM MgCl2, 2 mM CaCl2, 10 mM D-glucose, 10 mM HEPES, pH 7.3, approximately 300 mOsm). […] A programmable puller (Sutter, USA) was used to prepare a twin pair of ready for use pipettes. […] 1, 5, 10, 50, 100, 500, 1,000, 5,000 and 10,000 nM, and solutions were applied to the cell surface during 500 ms pulses through the U-tube, and then corresponding currents, digitized to 10 kHz, were recorded for 10 s. […] The averaged peak amplitudes of the currents, measured in the presence of selected compound concentrations, were compared with those determined in the absence of compounds (control) and they were calculated as % of control. […]

in vivo = settings: for Co (Brain), highest pro-galantamine concentration achieved in mouse brain: i.v. injection of 3 mg/kg, for Gal: galantamine after the same amount of galantamine; for Kp: in vivo
Protocol: In table 1, the key pharmacokinetic data of benzoyl-galantamine, of several other R1-pro-galantamines and of galantamine (for comparison) are listed. Table 1: Pharmacokinetic data of several R1-pro-galantamines in the mouse
Co is the highest pro-galantamine concentration (ng/ml) achieved in mouse brain after i.v. injection of 3 mg/kg of pro-galantamine. R-Pro ist he brain-to-blood concentration ratio of pro-galantamine, R-Gal that of galantamine under these experimental conditions. For comparison, Co and R-Gal are also provided for i.v. injection of the same amount of galantamine.
• Figure 1: Brain esterase inhibition by galantamine and several pro-galantamines. A 20% mouse brain homogenate was used, supplemented with 200 µM of acetylthiocholine as substrate, and the initial reaction kinetics were measured according to Riddles PW, Blakeley RL, Zerner B., "Reassessment of Ellman's reagent." Methods Enzymol. 1983;91:49-60. […] In derivative Gln 1063 R1 in formula I is -O-Si(CH3)2-C(CH3)2-C(CH3)2H. • Figure 2: Enzymatic cleavage of pro-galantamine to galantamine. Butyrylcholinesterase, 25 units/ml, was used. Reaction temperature was 37°C. Appearance of the fluorescent reaction product galantamine was determined by fluorescence detection. • Figure 3: Interaction of galantamine and pro-galantamine with a4ß2 neuronal nicotinic acetylcholine receptor ectopically expressed in HEK-293 cells. The increase in response to acetylcholine in the presence of galantamine and Gln-1062, respectively, was determined by whole-cell patch clamp recording. […] Scopolamine induces a memory deficit that can be measured by […] alternation in a T-maze trial. The cognition enhancing drugs were i.p. injected at several different doses together with scopolamine 20 min before a T-maze trial. Recovery was measured as a function of dose, and the EC50 was determined for each drug.
Determination of the pharmacokinetic profiles of Gln-1062 and its cleavage product galantamine in blood and brain. Determine the brain-to-blood concentration ratios of Gln-1062 and its cleavage product galantamine, and assess the blood-brain barrier penetration capacities.
Blood samples were collected from the retro-orbital plexus. 0.5 ml of blood was collected into a pre-labeled polypropylene micro centrifuge tube containing sodium citrate as the anticoagulant, and kept on ice.
Immediately after blood withdrawal, brain was perfused with phosphate buffer saline (pH 7.4), removed and frozen on dry ice.
Brain samples were thawed on ice and weighed. An appropriate volume ice cold homogenizing media (methanol: water::20:80,v/v) added. On ice, homogenized the brain sample with the polytron homogenizer and make up the volume with homogenizing media to get 1 gm of brain per 4 mL of homogenate. After homogenizing, immediately freezed the brain homogenate samples at -80°C until analysis.

[4] = Reversal from scopolamine-induced amnesia in mice (T-maze alternation); assay type: in vivo; settings: i.p., Figure 6
Protocol: as §1
Gln 1062, Gln 0979 and galanthamine were dissolved in 15% -hydroxypropyl-β-cyclodextrin in 96 mM NaCl (isotonic) supplied by the sponsor. Gln 1062 and Gln 0979 were used in concentrations of […], 0.03, 0.1 and 0.2 mg/ml, which when given in a volume of 10 ml/kg result in doses of 0.1, 0.3, 1 and 2 mg/kg i.p., respectively. Galanthamine was used in concentrations of 0.03, 0.1, 0.2 and 0.5 mg/ml, which when given in a volume of 10 ml/kg result in doses of 0.3, 1, 2 and 5 mg/kg i.p., respectively. Control animals received 15% -hydroxypropyl-β-cyclodextrin in 96 mM NaCl injection as a vehicle. […]
The potential cognitive enhancing property of Gln 1062, Gln 0979 and galanthamine were evaluated in scopolamine-treated mice in the T-maze alternation model under the same experimental conditions. […]
Memory performance was assessed by the percentage of spontaneous alternation in the T-maze. […]
The percentage of alternation over the 14 free-choice trials was determined for each mouse and was used as an index of working memory performance. […]
Analysis of variance (ANOVA) was performed on the result data. […] The drug induced reversion of scopolamine-induced memory deficit was calculated by setting the respective response of the saline/vehicle group as 100% and the scopolamine/vehicle group as 0% reversion. […]

brain cholinesterase = target: T2, brain cholinesterase (Mus musculus, UniProt P21836); assay: Inhibition of brain esterase, modified Ellman test in mouse brain homogenate; assay type: biochemical; settings: 20% mouse brain homogenate, 200 µM acetylthiocholine; Figure 1
T2 construct: from tissue; host or cells: mouse brain homogenate
T2 sequence (P21836 32-614): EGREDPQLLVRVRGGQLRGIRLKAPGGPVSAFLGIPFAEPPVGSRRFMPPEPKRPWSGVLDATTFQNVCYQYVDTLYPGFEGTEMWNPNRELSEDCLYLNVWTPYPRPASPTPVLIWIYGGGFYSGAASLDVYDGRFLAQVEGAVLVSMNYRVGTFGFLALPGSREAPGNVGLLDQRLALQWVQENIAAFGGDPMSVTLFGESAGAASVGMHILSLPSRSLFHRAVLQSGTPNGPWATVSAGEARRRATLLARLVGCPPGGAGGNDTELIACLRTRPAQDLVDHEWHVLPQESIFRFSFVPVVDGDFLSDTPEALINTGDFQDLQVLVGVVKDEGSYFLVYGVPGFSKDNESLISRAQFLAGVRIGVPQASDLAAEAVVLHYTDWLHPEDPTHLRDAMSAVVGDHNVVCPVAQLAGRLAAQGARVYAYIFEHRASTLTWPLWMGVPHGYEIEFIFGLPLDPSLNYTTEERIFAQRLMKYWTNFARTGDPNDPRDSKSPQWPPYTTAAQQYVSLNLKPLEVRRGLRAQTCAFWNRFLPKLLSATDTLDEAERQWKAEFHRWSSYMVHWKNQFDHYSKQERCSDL
Protocol: as §1
The brain is removed from the animal (mouse), shock frozen in liquid nitrogen and stored at minus 80°C until use. Before preparing the extract, the frozen brain is thawed on ice and the weight is determined. Ice cold buffer (130 mM NaCl, 5 mM KCl, 2.5 mM CaCl2, 1 mM MgCl2, 5 mM Glucose, 5 mM HEPES, pH 7.4) is added to the thawed mouse brain (1:4, weight to volume, resulting in a 20 % brain homogenate). The tissue is then homogenized in a potter homogeniser on ice, moving the piston up and down 11 times at 240 rpm. The freshly prepared mouse brain homogenate is divided into aliquots.
A modified Ellmann's esterase test is used. Briefly the method relies on the cleavage of the substrate acetylthiocholine to acetate and thiocholine. […] The inhibition is expressed as per cent of the non inhibited reaction according to following equation: % Inhibition = 100*(1-(Slopeinhibited/Slopenoninhibited)). […]

T1 sequence (P43681 29-627 limits assumed): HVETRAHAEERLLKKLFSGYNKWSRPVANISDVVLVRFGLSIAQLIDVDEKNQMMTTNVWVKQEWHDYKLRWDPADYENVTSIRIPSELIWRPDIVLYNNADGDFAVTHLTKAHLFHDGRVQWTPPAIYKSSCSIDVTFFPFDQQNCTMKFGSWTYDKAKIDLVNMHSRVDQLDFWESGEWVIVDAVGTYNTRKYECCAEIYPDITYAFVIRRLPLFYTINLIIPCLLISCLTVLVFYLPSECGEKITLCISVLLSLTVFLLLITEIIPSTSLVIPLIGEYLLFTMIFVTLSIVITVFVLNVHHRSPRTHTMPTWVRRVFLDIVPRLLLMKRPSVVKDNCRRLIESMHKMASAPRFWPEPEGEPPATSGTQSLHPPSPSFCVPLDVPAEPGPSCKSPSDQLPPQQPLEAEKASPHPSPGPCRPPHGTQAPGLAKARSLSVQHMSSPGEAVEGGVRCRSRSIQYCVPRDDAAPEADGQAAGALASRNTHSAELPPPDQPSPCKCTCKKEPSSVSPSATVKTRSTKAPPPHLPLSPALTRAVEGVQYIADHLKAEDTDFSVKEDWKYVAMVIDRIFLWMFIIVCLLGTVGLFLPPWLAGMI
T1 sequence (P17787 26-502): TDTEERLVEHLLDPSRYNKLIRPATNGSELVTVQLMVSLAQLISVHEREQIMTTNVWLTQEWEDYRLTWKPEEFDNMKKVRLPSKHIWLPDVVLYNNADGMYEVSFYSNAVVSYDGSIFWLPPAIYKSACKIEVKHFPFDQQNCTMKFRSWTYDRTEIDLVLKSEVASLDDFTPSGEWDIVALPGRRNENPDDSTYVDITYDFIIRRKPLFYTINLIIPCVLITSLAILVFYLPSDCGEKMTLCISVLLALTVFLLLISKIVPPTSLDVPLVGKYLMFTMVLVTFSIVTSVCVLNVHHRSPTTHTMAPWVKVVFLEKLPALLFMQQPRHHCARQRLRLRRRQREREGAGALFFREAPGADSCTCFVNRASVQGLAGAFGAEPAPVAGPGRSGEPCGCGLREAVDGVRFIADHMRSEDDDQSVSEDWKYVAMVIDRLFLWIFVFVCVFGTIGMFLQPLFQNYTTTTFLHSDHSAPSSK

| Structure (SMILES) | brain-to-plasma ratio [1] | logP [2] | maximal enhancement of response [3] | Co (Brain), highest pro-galantamine concentration achieved in mouse brain (in vivo) | Kp (in vivo; mouse) | Kp (in vivo; mouse, iv, 3 mg/kg) | efficacy in reversing scopolamine-induced amnesia relative to galantamine [4] | inhibition of brain esterase (brain cholinesterase) | brain-to-blood concentration ratio (RBB-proGal) (in vivo; mice) | concentration in blood at start of curve (in vivo; mouse blood, 3mg/kg, Figure 4b) | R-Pro, brain-to-blood concentration ratio of pro-galantamine (in vivo; mouse, i.v. 3 mg/kg of pro-galantamine) | R-Gal, brain-to-blood concentration ratio of galantamine (in vivo; mouse, i.v. 3 mg/kg of pro-galantamine, for Gal: same amount of galantamine) |
| --- | --- | --- | --- | --- | --- | --- | --- | --- | --- | --- | --- | --- |
| COc1ccc2c3c1O[C@H]1C[C@@H](O)C=C[C@@]31CCN(C)C2 [Gal, galantamine] | ~ 1.3 | 1.7 | ~ 40% | 1741 ng/mL | ~1.3 | 1.2 | – | – | – | – | – | – |
| COc1ccc2c3c1O[C@H]1C[C@@H](OC(=O)c4ccccc4)C=C[C@@]31CCN(C)C2 [Gln 1062, (4aS,6R,8aS)-4a,5,9,10,11,12-Hexahydro-3-methoxy-11-methyl-6H-benzofuro[3a,3,2-ef][2]benzazepin-6-ol, benzoate (ester)] | – | 3 | ~ 17% | 4812 ng/mL | – | – | approximately 4 times | little, if any cholinesterase inhibitory activity | > 19 | about 0.3 µg/g | 19.3 | 2.2 |
